System: colon cancer cell line SW-620
Test: Drug sensitivity of colon cancer cell line SW-620 (NCI60 panel)
Format: cell-based, human
Conditions: SW-620 colon cancer cell line, in which DR6 does not appear to be expressed (Northern analysis)
Experimental: In order to identify genes involved in drug resistance, the expression various genes in drug resistant cancer cells was measured. The drug resistant cancer cell lines used were all members of the NCI60 panel of drug resistant cell lines. The cell lines in this panel are resistant to one or more chemotherapeutic compounds.

Compound | sensitivity of the cell line to the drug
COc1cccc2c1C(=O)c1c(O)c3c(c(O)c1C2=O)C[C@@](O)(C(=O)CO)C[C@@H]3O[C@H]1C[C@H](N)[C@H](O)[C@H](C)O1 [doxorubicin] | relatively sensitive
O=C(O)CCCc1ccc(N(CCCl)CCCl)cc1 [chlorambucil] | relatively sensitive
COc1cc([C@@H]2c3cc4c(cc3[C@@H](O[C@@H]3O[C@@H]5CO[C@@H](C)O[C@H]5[C@H](O)[C@H]3O)[C@H]3COC(=O)[C@H]23)OCO4)cc(OC)c1O [etoposide] | relatively sensitive
N.N.[Cl][Pt][Cl] [cisplatin] | relatively sensitive
CC[C@@]1(O)C(=O)OCc2c1cc1n(c2=O)Cc2cc3c(CN(C)C)c(O)ccc3nc2-1 [topotecan] | relatively sensitive
